Measurements published in ChEMBL document CHEMBL1201862, “PubChem BioAssay data set” (2004).
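Test compounds were applied to cells in 96-well plates for 48 hours at 5 doses. At the GI50, growth is halved.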 Active and inactive are the calls of the source. Rule as the data show it: active = GI50 up to about 1.1 µM and inactive = higher.

Legend:
Assay in all cases: NCI anticancer screen, dose series, 48 h
Hs-578T = system: Hs-578T
SK-MEL-2 = system: SK-MEL-2
HT-29 = system: HT-29
EKVX = system: EKVX
SK-MEL-5 = system: SK-MEL-5
PC-3 = system: PC-3
HOP-92 = system: HOP-92
T47D = system: T47D
MDA-MB-435 = system: MDA-MB-435
HL-60 = system: HL-60
SN12C = system: SN12C
CAKI-1 = system: CAKI-1
A549 = system: A549
RXF 393 = system: RXF 393
Malme-3M = system: Malme-3M
NCI/ADR-RES = system: NCI/ADR-RES
K562 = system: K562
UACC-62 = system: UACC-62
SF-539 = system: SF-539
SNB-19 = system: SNB-19

Structure (SMILES) | GI50 (Hs-578T) | GI50 (SK-MEL-2) | GI50 (HT-29) | GI50 (EKVX) | GI50 (SK-MEL-5) | GI50 (PC-3) | GI50 (HOP-92) | GI50 (T47D) | GI50 (MDA-MB-435) | GI50 (HL-60) | GI50 (SN12C) | GI50 (CAKI-1) | GI50 (A549) | GI50 (RXF 393) | GI50 (Malme-3M) | GI50 (NCI/ADR-RES) | GI50 (K562) | GI50 (UACC-62) | GI50 (SF-539) | GI50 (SNB-19)
CCOC(=O)c1cc(C)nc2c1c(=O)n(-c1ccccc1)c(=O)n2CCCCN1CCN(c2ncccn2)CC1 | > 100 µM (inactive) | > 100 µM (inactive) | > 100 µM (inactive) | > 100 µM (inactive) | 35.2 µM (inactive) | 61.4 µM (inactive) | 34.6 µM (inactive) | 43.5 µM (inactive) | > 100 µM (inactive) | 25.4 µM (inactive) | > 100 µM (inactive) | 23.4 µM (inactive) | > 100 µM (inactive) | > 100 µM (inactive) | > 100 µM (inactive) | > 100 µM (inactive) | 39.1 µM (inactive) | 37.2 µM (inactive) |  | 
c1cnc(N2CCN(Cc3c[nH]c4ccccc34)CC2)nc1 | > 100 µM (inactive) | 13.3 µM (inactive) | 56.6 µM (inactive) | 85.3 µM (inactive) | 36.2 µM (inactive) | 23.5 µM (inactive) | > 100 µM (inactive) | 22.6 µM (inactive) | 31 µM (inactive) | 51.6 µM (inactive) | 42.1 µM (inactive) | 28.2 µM (inactive) | 80.4 µM (inactive) | 41.9 µM (inactive) | 43.4 µM (inactive) | 52.8 µM (inactive) | 40 µM (inactive) | 45.4 µM (inactive) | 25.6 µM (inactive) | > 100 µM (inactive)
NCCNc1nc(N2CCCC2)c2nc(Cl)c(NCc3ccccc3)nc2n1 | 2.53 µM (inactive) | 1.79 µM (inactive) | 1.95 µM (inactive) | 1.73 µM (inactive) | 1.75 µM (inactive) | 2.5 µM (inactive) | 1.78 µM (inactive) | 1.66 µM (inactive) | 1.69 µM (inactive) | 1.97 µM (inactive) | 1.52 µM (inactive) | 5.27 µM (inactive) | 1.71 µM (inactive) | 1.4 µM (inactive) | 2.07 µM (inactive) | 13.6 µM (inactive) | 0.122 µM (active) | 1.75 µM (inactive) | 1.96 µM (inactive) | 1.83 µM (inactive)
CC[N+]1(C)CCC(O)(/C=C/c2ccc(OC)cc2)C(C(=O)/C=C/c2ccc(OC)cc2)C1 (stereo not given) | 11.7 µM (inactive) | 19 µM (inactive) | 13.2 µM (inactive) | 28.6 µM (inactive) | 14.7 µM (inactive) | 20.1 µM (inactive) | 15.5 µM (inactive) | 5.86 µM (inactive) | 12.5 µM (inactive) | 1.52 µM (inactive) | 21.3 µM (inactive) | 1.88 µM (inactive) | 23.3 µM (inactive) | 15.1 µM (inactive) | 14.4 µM (inactive) | 27.1 µM (inactive) | 2.06 µM (inactive) | 17.8 µM (inactive) | 5.35 µM (inactive) | 17.3 µM (inactive)
Cc1nnc2cc(C(=O)O)c3ccccc3n2c1=O | > 10 µM (inactive) | > 10 µM (inactive) | > 10 µM (inactive) | > 10 µM (inactive) | > 10 µM (inactive) | > 10 µM (inactive) | > 10 µM (inactive) | > 10 µM (inactive) | > 10 µM (inactive) | > 10 µM (inactive) | > 10 µM (inactive) | > 10 µM (inactive) | > 10 µM (inactive) | > 10 µM (inactive) | > 10 µM (inactive) | > 10 µM (inactive) | > 10 µM (inactive) | > 10 µM (inactive) | > 10 µM (inactive) | > 10 µM (inactive)
COc1ccc2c(c1)-c1c(c3ccccc3n1CCN1CCCCC1)CC2 | 9.82 µM (inactive) | 5.73 µM (inactive) | 10.3 µM (inactive) | 26.8 µM (inactive) | 14.6 µM (inactive) | 5.75 µM (inactive) | 21.8 µM (inactive) | 18.9 µM (inactive) | 24.9 µM (inactive) | 2.63 µM (inactive) | 22.4 µM (inactive) | 21.6 µM (inactive) | 10.6 µM (inactive) | 1.57 µM (inactive) | 23.4 µM (inactive) | 6.25 µM (inactive) | 11.9 µM (inactive) | 16.3 µM (inactive) | 6.37 µM (inactive) | 23.7 µM (inactive)
N#Cc1cc2c(n(C3OC(CO)C(O)C(O)C3O)c1=S)CCCCCC2 (stereo not given) | > 100 µM (inactive) | > 100 µM (inactive) | > 100 µM (inactive) |  | > 100 µM (inactive) | > 100 µM (inactive) | > 100 µM (inactive) | 80.2 µM (inactive) | > 100 µM (inactive) | > 100 µM (inactive) | > 100 µM (inactive) | > 100 µM (inactive) | > 100 µM (inactive) | > 100 µM (inactive) | > 100 µM (inactive) | > 100 µM (inactive) | > 100 µM (inactive) | > 100 µM (inactive) | > 100 µM (inactive) | > 100 µM (inactive)
Cc1ccc([S+]([O-])(=Nc2ccccc2)C(C(C)C)C(C)(C)Cl)cc1 (stereo not given) | 29.6 µM (inactive) | 12.5 µM (inactive) | 17.1 µM (inactive) | 11.4 µM (inactive) | 4.06 µM (inactive) | 16.1 µM (inactive) | 30.1 µM (inactive) | 23.6 µM (inactive) | 10.7 µM (inactive) | 7.67 µM (inactive) | 22.4 µM (inactive) | 14.5 µM (inactive) | 16.2 µM (inactive) | 30.1 µM (inactive) | 27.9 µM (inactive) | 15 µM (inactive) | 16.7 µM (inactive) | 30.9 µM (inactive) | 15.9 µM (inactive) | 8.67 µM (inactive)
CC(C)[Si](OC1=C(c2ccccc2)C(NC(=O)/C=C/c2ccc([N+](=O)[O-])cc2)CCC1)(C(C)C)C(C)C (stereo not given) | > 100 µM (inactive) | > 100 µM (inactive) | > 100 µM (inactive) | > 100 µM (inactive) | > 100 µM (inactive) | > 100 µM (inactive) | > 100 µM (inactive) | > 100 µM (inactive) | > 100 µM (inactive) | > 100 µM (inactive) |  |  | > 100 µM (inactive) | > 100 µM (inactive) | > 100 µM (inactive) | > 100 µM (inactive) | > 100 µM (inactive) | > 100 µM (inactive) | > 100 µM (inactive) | > 100 µM (inactive)
N#Cc1nc(CCc2nc(C#N)c(N)o2)oc1N | > 10 µM (inactive) |  | > 10 µM (inactive) | > 10 µM (inactive) | > 10 µM (inactive) | > 10 µM (inactive) | > 10 µM (inactive) | > 10 µM (inactive) | > 10 µM (inactive) | > 10 µM (inactive) | > 10 µM (inactive) | > 10 µM (inactive) | > 10 µM (inactive) | > 10 µM (inactive) | > 10 µM (inactive) | > 10 µM (inactive) | > 10 µM (inactive) | > 10 µM (inactive) | > 10 µM (inactive) | > 10 µM (inactive)
CC(O)CNC(=O)Nc1c(C(F)(F)F)cc(-c2ccccc2)[nH]c1=O (stereo not given) | > 100 µM (inactive) | > 100 µM (inactive) | > 100 µM (inactive) | > 100 µM (inactive) | > 100 µM (inactive) | > 100 µM (inactive) | > 100 µM (inactive) | > 100 µM (inactive) | > 100 µM (inactive) | 0.343 µM (active) | > 100 µM (inactive) | > 100 µM (inactive) | > 100 µM (inactive) | > 100 µM (inactive) | > 100 µM (inactive) | > 100 µM (inactive) | > 100 µM (inactive) | > 100 µM (inactive) |  | > 100 µM (inactive)
COC1=C2C=[N+](C)C3C(=C2C=CC1OC)Cc1cc2c(cc13)OCO2 (stereo not given) | 13.7 µM (inactive) | 15.5 µM (inactive) | 13.5 µM (inactive) | 17.9 µM (inactive) | 11.2 µM (inactive) | 16.5 µM (inactive) | 22.7 µM (inactive) | 5.02 µM (inactive) | 15.4 µM (inactive) | 4.61 µM (inactive) | 4.43 µM (inactive) | 15.8 µM (inactive) | 15.8 µM (inactive) |  | 3.88 µM (inactive) | 29.9 µM (inactive) | 6.93 µM (inactive) | 7.6 µM (inactive) | 11.8 µM (inactive) | 5.28 µM (inactive)
Clc1ccc(-c2cc3nc4ccccc4nc3o2)cc1 | 15.7 µM (inactive) | > 100 µM (inactive) | > 100 µM (inactive) | > 100 µM (inactive) | > 100 µM (inactive) | > 100 µM (inactive) | 47.2 µM (inactive) | > 100 µM (inactive) | > 100 µM (inactive) | > 100 µM (inactive) |  | > 100 µM (inactive) | > 100 µM (inactive) | 32.5 µM (inactive) | > 100 µM (inactive) | 52.5 µM (inactive) | > 100 µM (inactive) | 38.3 µM (inactive) | 53.3 µM (inactive) | 31.6 µM (inactive)
CCN(CC)C1C(=O)NC1C#Cc1ccccc1 (stereo not given) | > 100 µM (inactive) | > 100 µM (inactive) | 48 µM (inactive) | > 100 µM (inactive) | 26.4 µM (inactive) | > 100 µM (inactive) | 18.9 µM (inactive) | 84.7 µM (inactive) | 40.8 µM (inactive) | 36.6 µM (inactive) | > 100 µM (inactive) | 38.4 µM (inactive) |  | > 100 µM (inactive) | 98.4 µM (inactive) | > 100 µM (inactive) | 42.3 µM (inactive) | > 100 µM (inactive) | > 100 µM (inactive) | > 100 µM (inactive)
